Assay results taken from ChEMBL document CHEMBL1201862, “PubChem BioAssay data set” (2004).
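Cells were grown in 96-well plates and exposed to each compound for 48 hours at five concentrations; endpoints were interpolated linearly between bracketing concentrations, or set to the highest concentration if not reached. GI50 marks 50% less growth.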 Activity calls are given as the source filed them. No stated cut-off is given here; in the data, active = GI50 up to about 1.1 µM and inactive = higher. Where a SMILES comes first, the peptide text is derived from it. The star is where a group is joined. Boc = CC(C)(C)OC(=O)*; tBu = CC(C)(C)*

Key:
Test in all cases: NCI-60 cell line screen, 48 h
SK-OV-3 = tested on: SK-OV-3
MOLT-4 = tested on: MOLT-4
HCT-15 = tested on: HCT-15
MDA-MB-231 = tested on: MDA-MB-231
CAKI-1 = tested on: CAKI-1
T47D = tested on: T47D
SF-268 = tested on: SF-268
SNB-19 = tested on: SNB-19
HOP-92 = tested on: HOP-92
HCT-116 = tested on: HCT-116
UO-31 = tested on: UO-31
UACC-257 = tested on: UACC-257
OVCAR-8 = tested on: OVCAR-8
Malme-3M = tested on: Malme-3M
A498 = tested on: A498
MDA-MB-435 = tested on: MDA-MB-435
MCF7 = tested on: MCF7
HL-60 = tested on: HL-60
SNB-75 = tested on: SNB-75

Measured: GI50

CC1(C)C[C@H]2[C@H](O)C(CO)=C3C(=O)[C@@H](O)[C@]3(C)[C@H]2C1
inactive: SK-OV-3 > 100 µM | MOLT-4 17.4 µM | MDA-MB-231 > 100 µM | CAKI-1 > 100 µM | T47D 74.6 µM | SF-268 87.1 µM | SNB-19 > 100 µM | HOP-92 > 100 µM | HCT-116 75.9 µM | UO-31 89.5 µM | UACC-257 > 100 µM | OVCAR-8 > 100 µM | Malme-3M > 100 µM | A498 > 100 µM | MDA-MB-435 50.5 µM | MCF7 44.8 µM
52.5 µM: HCT-15

CCOC(=O)C(NC(=O)c1ccccc1)(Nc1ccc(S(=O)(=O)Nc2ncccn2)cc1)C(F)(F)F (centres undefined)
> 100 µM: HCT-15
active: SK-OV-3 0.513 µM
inactive: MOLT-4 > 100 µM | MDA-MB-231 > 100 µM | CAKI-1 > 100 µM | T47D > 100 µM | SF-268 > 100 µM | SNB-19 > 100 µM | HOP-92 > 100 µM | HL-60 > 100 µM | HCT-116 > 100 µM | UO-31 > 100 µM | SNB-75 > 100 µM | UACC-257 > 100 µM | OVCAR-8 > 100 µM | Malme-3M > 100 µM | MDA-MB-435 > 100 µM | MCF7 > 100 µM

COc1cc(O)cc(O)c1C(=O)CC(Cl)(Cl)Cl
inactive: SK-OV-3 > 100 µM | MOLT-4 > 100 µM | MDA-MB-231 > 100 µM | CAKI-1 > 100 µM | T47D > 100 µM | SF-268 > 100 µM | SNB-19 > 100 µM | HOP-92 > 100 µM | HL-60 > 100 µM | HCT-116 > 100 µM | UO-31 > 100 µM | UACC-257 > 100 µM | OVCAR-8 > 100 µM | Malme-3M > 100 µM | A498 > 100 µM | MDA-MB-435 > 100 µM | MCF7 > 100 µM
> 100 µM: HCT-15

CCOC(=O)[C@H]1O[C@@H]1C(=O)NC(CC(C)C)C(=O)NCCC(C)C (some centres undefined)
> 100 µM: HCT-15
inactive: SK-OV-3 > 100 µM | MOLT-4 > 100 µM | MDA-MB-231 > 100 µM | CAKI-1 > 100 µM | T47D > 100 µM | SF-268 > 100 µM | SNB-19 > 100 µM | HOP-92 > 100 µM | HCT-116 > 100 µM | UO-31 > 100 µM | SNB-75 > 100 µM | UACC-257 > 100 µM | OVCAR-8 > 100 µM | Malme-3M > 100 µM | A498 > 100 µM | MDA-MB-435 > 100 µM | MCF7 > 100 µM

CCCCSC1=N/C(=C\c2ccco2)C(Cl)=N1
> 100 µM: HCT-15
inactive: SK-OV-3 > 100 µM | MOLT-4 > 100 µM | MDA-MB-231 > 100 µM | CAKI-1 > 100 µM | T47D > 100 µM | SF-268 > 100 µM | SNB-19 > 100 µM | HL-60 > 100 µM | HCT-116 > 100 µM | UO-31 > 100 µM | SNB-75 > 100 µM | UACC-257 > 100 µM | OVCAR-8 > 100 µM | Malme-3M > 100 µM | A498 > 100 µM | MDA-MB-435 > 100 µM | MCF7 > 100 µM

COc1ccccc1Nc1nc2c([nH]1)c(=O)n(C)c(=O)n2C
> 10 µM: HCT-15
inactive: SK-OV-3 > 10 µM | MOLT-4 > 10 µM | MDA-MB-231 > 10 µM | CAKI-1 > 10 µM | T47D > 10 µM | SF-268 > 10 µM | HOP-92 > 10 µM | HL-60 > 10 µM | SNB-75 > 10 µM | UACC-257 > 10 µM | OVCAR-8 > 10 µM | Malme-3M > 10 µM | MDA-MB-435 > 10 µM | MCF7 > 10 µM

Cc1ccc(C(=O)C#Cc2cn(C3CC(O)C(CO)O3)c(=O)[nH]c2=O)cc1 (centres undefined)
inactive: SK-OV-3 > 100 µM | MDA-MB-231 > 100 µM | CAKI-1 90.2 µM | T47D 23.6 µM | SF-268 > 100 µM | SNB-19 > 100 µM | HOP-92 32.6 µM | HCT-116 62.2 µM | UO-31 > 100 µM | SNB-75 > 100 µM | UACC-257 > 100 µM | OVCAR-8 > 100 µM | Malme-3M 15.4 µM | MDA-MB-435 > 100 µM | MCF7 47.6 µM
> 100 µM: HCT-15

Cc1nn(C(=O)c2ccncc2)c2c1C(c1ccccc1)SC(=N)N2 (centres undefined)
> 10 µM: HCT-15
inactive: SK-OV-3 > 10 µM | MOLT-4 > 10 µM | MDA-MB-231 > 10 µM | CAKI-1 > 10 µM | T47D > 10 µM | SF-268 > 10 µM | SNB-19 > 10 µM | HOP-92 > 10 µM | HL-60 > 10 µM | HCT-116 > 10 µM | SNB-75 > 10 µM | UACC-257 > 10 µM | OVCAR-8 > 10 µM | Malme-3M > 10 µM | MDA-MB-435 > 10 µM | MCF7 > 10 µM

COc1ccc2c(c1OC)C(=O)N/C2=C\c1c(CCN(C)C)cc2c(c1OC)OCO2
active: SNB-75 < 0.01 µM
inactive: SK-OV-3 > 100 µM | MOLT-4 > 100 µM | MDA-MB-231 41.1 µM | T47D 27.9 µM | SF-268 > 100 µM | SNB-19 > 100 µM | HOP-92 > 100 µM | HL-60 > 100 µM | HCT-116 83.2 µM | UACC-257 51.2 µM | OVCAR-8 > 100 µM | Malme-3M 62.8 µM | MDA-MB-435 31.5 µM | MCF7 > 100 µM
> 100 µM: HCT-15

C=CCCC(On1c(-c2ccc(Cl)cc2)csc1=S)c1ccccc1 (centres undefined)
inactive: MOLT-4 7.62 µM | MDA-MB-231 68.9 µM | CAKI-1 > 100 µM | T47D 17 µM | SF-268 34 µM | SNB-19 35.6 µM | HOP-92 40.6 µM | HL-60 7.18 µM | HCT-116 7.03 µM | UO-31 42 µM | UACC-257 33 µM | OVCAR-8 98.6 µM | Malme-3M 14.6 µM | A498 > 100 µM | MDA-MB-435 4.56 µM | MCF7 16.7 µM
8.05 µM: HCT-15

CN(C)CCNc1nc2c(c(=O)n(C)c(=O)n2C)n1C
> 100 µM: HCT-15
inactive: SK-OV-3 > 100 µM | MOLT-4 > 100 µM | MDA-MB-231 > 100 µM | CAKI-1 > 100 µM | T47D > 100 µM | SF-268 > 100 µM | SNB-19 > 100 µM | HOP-92 > 100 µM | HL-60 > 100 µM | HCT-116 > 100 µM | UO-31 > 100 µM | UACC-257 > 100 µM | OVCAR-8 > 100 µM | Malme-3M > 100 µM | A498 > 100 µM | MDA-MB-435 > 100 µM | MCF7 > 100 µM

CN1CCN(C(=S)N(C)C(=O)c2ccco2)CC1
> 100 µM: HCT-15
inactive: MOLT-4 > 100 µM | MDA-MB-231 > 100 µM | T47D > 100 µM | SNB-19 > 100 µM | HOP-92 > 100 µM | HL-60 > 10 µM | UO-31 > 100 µM | UACC-257 > 100 µM | OVCAR-8 > 100 µM | Malme-3M > 100 µM | MDA-MB-435 > 100 µM | MCF7 > 100 µM

CNc1cc(N)ccc1C(=O)N1CCC[C@H]1CO
inactive: SK-OV-3 > 100 µM | MOLT-4 > 100 µM | MDA-MB-231 > 100 µM | T47D > 100 µM | SF-268 > 100 µM | SNB-19 > 100 µM | HOP-92 > 100 µM | HCT-116 > 100 µM | UO-31 > 100 µM | SNB-75 > 100 µM | UACC-257 > 100 µM | OVCAR-8 > 100 µM | A498 > 100 µM | MDA-MB-435 > 100 µM | MCF7 > 100 µM
> 100 µM: HCT-15

COc1ccc(/C=N/Nc2nc(=S)[nH]c3[nH]ncc23)cc1
inactive: SK-OV-3 > 100 µM | MOLT-4 > 100 µM | MDA-MB-231 34.6 µM | CAKI-1 32.7 µM | T47D 14.5 µM | SF-268 93.8 µM | SNB-19 22.2 µM | HL-60 > 100 µM | HCT-116 > 100 µM | UO-31 > 100 µM | SNB-75 > 100 µM | UACC-257 55.6 µM | OVCAR-8 > 100 µM | Malme-3M 38.2 µM | A498 40.9 µM | MDA-MB-435 30.6 µM | MCF7 43.5 µM
> 100 µM: HCT-15

CCCCOc1ccc(S(=O)(=O)N/C(=N\O)Nc2ccc(Cl)cc2)cc1
14.6 µM: HCT-15
inactive: MOLT-4 10.8 µM | MDA-MB-231 16.4 µM | CAKI-1 10.8 µM | T47D 6.64 µM | SF-268 16 µM | SNB-19 15.2 µM | HOP-92 4.79 µM | HCT-116 16.9 µM | UO-31 12.2 µM | UACC-257 15.5 µM | OVCAR-8 17.9 µM | Malme-3M 17.7 µM | A498 13.4 µM | MDA-MB-435 15.9 µM | MCF7 13.3 µM

CC(OC(C)(C)C)C(NC(=O)C(N)CCCCNC(=O)OC(C)(C)C)C(=O)NC(Cc1ccccc1)C(=O)O (centres undefined) (H-Lys(Boc)-Thr(tBu)-Phe-OH; configuration not given here)
> 100 µM: HCT-15
inactive: SK-OV-3 15.2 µM | MOLT-4 > 100 µM | MDA-MB-231 > 100 µM | CAKI-1 > 100 µM | T47D > 100 µM | SF-268 > 100 µM | SNB-19 > 100 µM | HOP-92 > 100 µM | HL-60 > 100 µM | HCT-116 > 100 µM | UO-31 > 100 µM | SNB-75 > 100 µM | UACC-257 > 100 µM | OVCAR-8 > 100 µM | Malme-3M > 100 µM | MDA-MB-435 > 100 µM | MCF7 > 100 µM
